Test results taken from patent US20060019971A1, “Treatment of cardiovascular disease with inhibitors of p38 kinase” (priority 2003, published 2006).
“Also recorded” adds a separate entry of the source.

Tests used:
Assay type in all cases: cell-based, human
TNFα mRNA in HPBMCs = assay: TNFα gene expression in HPBMCs, real-time PCR; details: 2 hours
Method: 5×10^6 HPBMCs were plated in 6-well. After 1 hour medium was removed and cells were treated with vehicle or 1μM p38 inhibitor in RPMI 1640 medium. After 1 hour cells were stimulated with 10% FCS only or 10 μg/ml CRP plus 10% FCS. After 6 hours conditioned medium was collected and IL-1b and TNFa levels were determined by ELISA. […] 5×10^6 HPBMCs were plated in 6-well. After I hour medium was removed and cells were treated with vehicle or […] p38 inhibitor in RPMI 1640 medium. After 1 hour cells were stimulated with 10% FCS only or 10 μg/ml CRP plus 10% FCS. After 2 hours RNA was extracted from the cells and TNFa (c) and IL-1b (d) expression levels were determined by real-time PCR as described in the Experimental section. […]
(§1) RNA was extracted from the cells using Qiagen RNA extraction kit according to the manufacturer's instruction. The expression of pro-inflammatory genes IL-1β, IL-6, IL-8, TNFα, COX-2, ET-1, TF were assessed by real-time PCR. […]
(§2) Real-time RT-PCR was performed in a two-step manner. cDNA synthesis and real-time detection were carried out in a PTC-100™ Thermal Cycler (MJ Research Inc, Waltham, Mass.) and an ABI Prism™ 7700 Sequence Detection System (Applied Biosystems, Foster City, Calif.), respectively. […] Relative quantitation of gene expression was performed using the relative standard curve method. […]

ET-1 mRNA in HPBMCs = assay: ET-1 gene expression in HPBMCs, real-time PCR; details: 6 hours
Method: 5×10^6 HPBMCs were plated in 6-well. After 1 hour medium was removed and cells were treated with vehicle or 1 μM P38 INHIBITOR in RPMI 1640 medium. After 1 hour cells were stimulated with 10% FCS only or 10 μg/ml CRP plus 10% FCS. After 6 hours RNA was extracted from the cells and ET-1 gene expression level was determined by real-time PCR as described in the Experimental section.
Cryopreserved human peripheral blood monocytes (HPBMCs, from Biowitker, Walkersvill, Md.) were thawed and washed twice in RPMI 1640. Cells were plated in tissue culture plates and incubated in 5% CO2 at 37 C. After 1 hr media were removed and cells were treated with various treatments. After 2 to 20 hours conditioned media and/or cell lysates were collected for the analyses of secreted cytokines, protein or mRNA expression. 10 μg/ml of purified human CRP (Calbiochem, San Diego, Calif.) was used in most of the treatments. In some experiments fetal calf serum (FCS from ATCC) was added to a final concentration of 10% together with CRP. In the examples provided herein, including those assessing the effects of p38 antagonism, cells were pre-treated with SD, a p38 small molecule inhibitor (Compound 162 in Table A) for 1 hour prior to CRP treatment as described above. In a parallel series of experiments, the effect of vehicle (DMSO) was tested. For TaqMan analyses of various gene expression cells were lysed in ice-cold RLT lysis buffer (Qiagen, Valencia, Calif.) and the lysates were kept in −80° C. until the analyses. […]
as §1, §2

IL-8 mRNA in HPBMCs = assay: IL-8 gene expression in HPBMCs, real-time PCR; details: 1 μM SD
Method: 8×10^5 HPBMCs were plated in 96-well. After 1 hour medium was removed and cells were incubated with or without 10 μg/ml of purified human CRP in serum-free RPMI 1640. In parallel experiments cells were treated with 10% FCS together with the CRP treatment. For the p38 antagonism, p38 inhibitor was added to a final concentration of 1 μM in the parallel treatment. After 6 hours conditioned medium were collected and IL-6 and IL-8 levels were determined by ELISA. […] 5×10^6 HPBMCs were plated in 6-well. After 1 hour medium was removed and cells were treated with vehicle or 1 μM p38 inhibitor in RPMI 1640 medium. After 1 hour cells were stimulated with 10% FCS only or 10 μg/ml CRP plus 10% FCS. After 2 hours RNA was extracted from the cells and IL-8 expression level was determined by real-time PCR as described in the Experimental section.
Cryopreserved human peripheral blood monocytes (HPBMCs, from Biowitker, Walkersvill, Md.) were thawed and washed twice in RPMI 1640. Cells were plated in tissue culture plates and incubated in 5% CO2 at 37 C. After 1 hr media were removed and cells were treated with various treatments. […]
as §1

## C[C@@H]1CN(Cc2ccc(F)cc2)[C@@H](C)CN1C(=O)c1cc2c(C(=O)C(=O)N(C)C)c[nH]c2cc1Cl [Compound 162]
TNFα mRNA in HPBMCs; 1 μM SD
  inhibition of CRP augmented TNFα transcription: completely attenuated
TNFα mRNA in HPBMCs; 10% FCS
  FCS induced TNFα transcription, sensitivity to SD treatment: sensitive
ET-1 mRNA in HPBMCs; 1 μM SD pre-treatment, listed as SD
  inhibition of CRP-invoked ET-1 mRNA expression: almost completely blocked; also recorded: almost completely inhibited
ET-1 mRNA in HPBMCs; 1 μM SD
  inhibition of FCS induced ET-1 mRNA: completely inhibited
IL-8 mRNA in HPBMCs
  inhibition of FCS invoked IL-8 expression: almost completely inhibited
IL-8 mRNA in HPBMCs; at 6 hours
  inhibition of CRP increased IL-8 mRNA level: almost completely inhibited
